Results reported in patent US9458176B2, “Tetrahydroimidazo(1,5-D)[1,4]oxazepine derivative” (Eisai R&D Management Co., Ltd., priority 2013, dated 2016).

Molecular target: human mGluR2 (Homo sapiens (Human), UniProt Q14416)
Assay: [35S]GTPγS binding assay (Affinity to mGluR2)
Format: biochemical
Conditions: cell membrane fraction of HEK293 cells stably expressing human mGluR2; glutamic acid 10 μM
Method: (Preparation of Cell Membrane Fraction of HEK293 Cells Stably Expressing Human Metabotropic Glutamate Receptor 2 (mGluR2))
HEK293 cells stably expressing human mGluR2 and human glutamate transporter SLC1A3 were cultured in a Dulbecco's modified Eagle's medium with 10% fetal bovine serum (50 units/mL of penicillin, 50 μg/mL of streptomycin, 60 μg/mL of geneticin, 400 μg/mL of hygromycin B and 2 mM of glutamine) at 37° C. under 5% CO2. Confluent cell cultures were washed twice with PBS(−), and then scraped off with a cell scraper, and subjected to centrifugal separation at 4° C. and 1500 rpm for 5 minutes for collecting cells. The centrifuged sediment (cell pellet) was homogenized in a 20 mM HEPES buffer containing 10 mM EDTA (pH 7.4) by using sonicator and centrifuged at 4° C. and 1500×g for 30 minutes. The supernatant (soluble fraction) was subjected to the centrifugal separation at 4° C. and 40,000×g for 30 minutes, and thus, insoluble fraction was obtained. After additional centrifugally washing the obtained fraction with 20 mM HEPES buffer containing 10 mM EDTA (pH 7.4), the pellet was centrifugally suspended with a 20 mM HEPES buffer containing 0.1 mM EDTA, and the cell membrane fraction was obtained by the centrifugal separation at 4° C. and 40,000×g for 30 minutes. The thus obtained cell membrane fraction was suspended in a 20 mM HEPES buffer containing 0.1 mM EDTA in a protein concentration of 3 mg/mL, which was stored at −80° C.
([^35S]GTPγS Binding Assay)
The frozen cell membrane fraction prepared as described above was thawed before use, and the resultant was diluted with a buffer for a binding assay (final concentrations: 20 mM HEPES, 100 mM NaCl, 1 mM MgCl2, 3 μM GDP, 300 μg/mL saponin, 0.1% BSA). The compound of each example was added to a cell membrane fraction containing 1.8 to 3 μg/assay of membrane protein on a plate, followed by incubation at room temperature for 30 minutes. Thereafter, with glutamic acid (in a final concentration of 10 μM) added thereto, incubation was performed at room temperature for 15 minutes, and thereafter, [^35S]GTPγS (in a final concentration of 0.8 kBq) and 588 μg WGA-SPA beads were added thereto, followed by incubation at room temperature for 1 hour. After the incubation, the plate was subjected to the centrifugal separation at 2,500 rpm and room temperature, and then, membrane cell binding radioactivity was measured with a top count.
A [^35S]GTPγS binding amount obtained by performing the above-described reaction in the absence of glutamic acid was defined as nonspecific binding, and a difference from a [^35S]GTPγS binding amount obtained in the presence of glutamic acid was defined as specific binding. On the basis of ratios of inhibiting the specific binding at various concentrations of the compounds of the respective examples, inhibition curves were obtained. Concentrations of the compounds of the respective examples at which the specific [^35S]GTPγS binding amount was suppressed by 50% (IC50 values) were calculated on the basis of the inhibition curves and shown in Tables 8 and 9.

human mGluR2, sequence (Q14416 19-872): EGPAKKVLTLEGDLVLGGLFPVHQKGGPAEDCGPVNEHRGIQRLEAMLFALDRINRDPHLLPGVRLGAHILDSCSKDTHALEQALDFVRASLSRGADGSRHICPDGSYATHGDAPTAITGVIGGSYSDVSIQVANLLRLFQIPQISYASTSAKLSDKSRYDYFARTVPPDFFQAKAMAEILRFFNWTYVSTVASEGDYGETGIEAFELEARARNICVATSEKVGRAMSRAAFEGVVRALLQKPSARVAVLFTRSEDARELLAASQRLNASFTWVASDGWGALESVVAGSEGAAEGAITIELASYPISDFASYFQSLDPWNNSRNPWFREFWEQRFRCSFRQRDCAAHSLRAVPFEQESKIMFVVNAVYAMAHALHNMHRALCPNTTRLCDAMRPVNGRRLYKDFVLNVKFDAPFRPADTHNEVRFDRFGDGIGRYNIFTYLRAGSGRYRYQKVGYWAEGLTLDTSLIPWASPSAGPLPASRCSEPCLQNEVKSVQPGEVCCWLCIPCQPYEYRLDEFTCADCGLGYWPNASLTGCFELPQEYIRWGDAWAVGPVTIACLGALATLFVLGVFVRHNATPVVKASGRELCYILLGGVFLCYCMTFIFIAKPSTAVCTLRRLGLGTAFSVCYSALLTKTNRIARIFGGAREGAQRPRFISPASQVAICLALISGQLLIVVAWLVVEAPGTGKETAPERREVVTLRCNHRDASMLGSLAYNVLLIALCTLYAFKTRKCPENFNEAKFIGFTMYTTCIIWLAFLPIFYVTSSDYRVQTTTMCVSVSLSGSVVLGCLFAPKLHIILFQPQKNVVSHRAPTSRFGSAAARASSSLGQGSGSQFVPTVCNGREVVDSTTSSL

SMILES	IC50 [nM]
COc1cc(-c2nc(-c3cc(C)nc(C)c3)c3n2C[C@@H](C)OCC3)ccc1F [Example 136]	33.9
Cc1cc(-c2nc(-c3ccc(OC(F)(F)F)cc3)n3c2CCO[C@H](C)C3)ccn1 [Example 50]	14.2
Cc1cc(-c2nc(-c3ccc(Cl)c(C)c3)n3c2CCO[C@H](C)C3)cc(CF)n1 [Example 88]	16.7
Cc1cc(-c2nc(-c3ccc(OC(F)F)c(F)c3)n3c2CCOCC3)ccn1 [Example 120]	47.2
Cc1cc(-c2nc(-c3ccc(Cl)cc3)n3c2CCO[C@H](C)C3)cc(C)n1 [Example 61]	21.7
Cc1cc(-c2nc(-c3ccc(Cl)c(OC(F)(F)F)c3)n3c2CCOCC3)cc(C)n1 [Example 48]	40
COc1cc(-c2nc(-c3cc(C)nc(C)c3)c3n2C[C@@H](CF)OCC3)ccc1C [Example 71]	18.9
COc1cc(-c2nc(-c3cc(C)nc(C)c3)c3n2CCOCC3)ccc1C [Example 46]	65.6
CCc1ccc(-c2nc(-c3ccnc(C)c3)c3n2C[C@@H](C)OCC3)cc1OC [Example 101]	7.6
C[C@@H]1Cn2c(-c3ccc(OC(F)(F)F)cc3)nc(-c3ccnc(CF)c3)c2CCO1 [Example 85]	29.7
Cc1cc(-c2nc(-c3ccc(OC(F)(F)F)cc3)n3c2CCOCC3)ccn1 [Example 43]	90
Cc1cc(-c2nc(-c3ccnc(F)c3)c3n2CCOCC3)ccc1OC(F)(F)F [Example 115]	61.7
COc1cc(-c2nc(-c3ccnc(C)c3)c3n2C[C@@H](C)OCC3)ccc1Cl [Example 114]	19.2
COc1ccc(-c2nc(-c3cc(C)nc(C)c3)c3n2C[C@@H](C)OCC3)cc1F [Example 59]	96.3
Cc1cc(-c2nc(-c3ccc(OC(C)C)c(Cl)c3)n3c2CCO[C@H](C)C3)cc(C)n1 [Example 35, (R)-3-(3-chloro-4-isopropoxyphenyl)-1-(2,6-dimethylpyridin-4-yl)-6-methyl-5,6,8,9-tetrahydroimidazo[1,5-d][1,4]oxazepine]	2.7
COc1cc(-c2nc(-c3cc(C)nc(C)c3)c3n2CCOCC3)ccc1OC(F)(F)F [Example 117]	22
Cc1cc(-c2nc(-c3ccc(F)c(OCC4CC4)c3)n3c2CCO[C@H](C)C3)cc(C)n1 [Example 6, (R)-3-(3-cyclopropylmethoxy-4-fluorophenyl)-1-(2,6-dimethylpyridin-4-yl)-6-methyl-5,6,8,9-tetrahydroimidazo[1,5-d][1,4]oxazepine]	13
Cc1cc(-c2nc(-c3ccc(OCC(F)(F)F)c(F)c3)n3c2CCOCC3)cc(C)n1 [Example 2, 1-(2,6-dimethylpyridin-4-yl)-3-(3-fluoro-4-(2,2,2-trifluoroethoxy)phenyl)-5,6,8,9-tetrahydroimidazo[1,5-d][1,4]oxazepine]	97.4
Cc1cc(-c2nc(-c3ccc(Cl)c(C)c3)n3c2CCO[C@H](C)C3)ccn1 [Example 54]	19.4
COc1cc(-c2nc(-c3ccnc(CO)c3)c3n2C[C@@H](C)OCC3)ccc1Cl [Example 47]	242
COc1ccc(-c2nc(-c3cc(C)nc(C)c3)c3n2C[C@@H](C)OCC3)cc1C [Example 18, (R)-1-(2,6-dimethylpyridin-4-yl)-3-(4-methoxy-3-methylphenyl)-6-methyl-5,6,8,9-tetrahydroimidazo[1,5-d][1,4]oxazepine]	12.3
Cc1cc(-c2nc(-c3ccc(Cl)c(Cl)c3)n3c2CCO[C@H](C)C3)cc(CF)n1 [Example 89]	13.2
Cc1cc(-c2nc(-c3ccc(OC(F)(F)F)cc3)n3c2CCO[C@H](C)C3)cc(C)n1 [Example 51]	7.8
Cc1cc(-c2nc(-c3ccc(Cl)c(Cl)c3)n3c2CCO[C@H](C)C3)ccn1 [Example 66]	12.6
Cc1cc(-c2nc(-c3ccc(OC(F)(F)F)cc3)n3c2CCOCC3)cc(C)n1 [Example 42]	45.3
Cc1cc(-c2nc(-c3ccc(C(F)(F)F)c(F)c3)n3c2CCO[C@H](C)C3)ccn1 [Example 139]	47.5

Same assay, conditions: cell membrane fraction of HEK293 cells stably expressing human mGluR2; glutamic acid 10 μM; inhibition of specific [35S]GTPγS binding

SMILES	IC50 [nM]
Cc1cc(-c2nc(-c3ccc(OC4CC4)c(C)c3)n3c2CCO[C@H](C)C3)cc(CF)n1 [Example 208]	4.7
Cc1cc(-c2nc(-c3ccc(OC4COC4)c(Cl)c3)n3c2CCO[C@H](C)C3)cc(C)n1 [Example 232]	9.7
COc1cc(-c2nc(-c3ccnc(C)c3)c3n2C[C@@H](C)OCC3)ccc1OC(F)F [Example 149]	18.9
Cc1cc(-c2nc(-c3ccc(C)c(C(F)(F)F)c3)n3c2CCO[C@H](C)C3)cc(C)n1 [Example 183]	7.4
COc1cc(-c2nc(-c3ccnc(C)c3)c3n2C[C@@H](C)OCC3)ccc1C(C)(F)F [Example 240]	46.9
Cc1cc(-c2nc(-c3ccc(F)c(OC(F)F)c3)n3c2CCO[C@H](C)C3)cc(C)n1 [Example 184]	13.7
COc1cc(-c2nc(-c3cc(C)nc(CO)c3)c3n2C[C@@H](CF)OCC3)ccc1OC(F)F [Example 194]	108
Cc1cc(-c2nc(-c3ccc(OC(F)(F)F)c(F)c3)n3c2CCO[C@H](C)C3)cc(CO)n1 [Example 180]	100
Cc1cc(-c2nc(-c3ccc(C(F)(F)F)cc3)n3c2CCO[C@H](C)C3)cc(C)n1 [Example 142]	20.2
COc1ccc(-c2nc(-c3cc(C)nc(CF)c3)c3n2C[C@@H](C)OCC3)cc1OC(F)(F)F [Example 210]	4.7
Cc1cc(-c2nc(-c3ccc(OC(C)C)c(C)c3)n3c2CCO[C@H](C)C3)cc(C)n1 [Example 242]	2.4
Cc1cc(-c2nc(-c3ccc(OC(F)(F)F)c(C)c3)n3c2CCO[C@H](C)C3)cc(CF)n1 [Example 204]	4
Cc1cc(-c2nc(-c3ccc(OC(F)(F)F)c(CF)c3)n3c2CCO[C@H](C)C3)cc(C)n1 [Example 231]	2.4
CCOc1ccc(-c2nc(-c3cc(C)nc(C)c3)c3n2C[C@@H](CF)OCC3)cc1C [Example 243]	1.7
Cc1cc(-c2nc(-c3ccc(C(F)(F)F)c(C)c3)n3c2CCO[C@H](CF)C3)ccn1 [Example 187]	19.3
Cc1cc(-c2nc(-c3ccc(OC(F)(F)F)c(F)c3)n3c2CCO[C@H](CF)C3)cc(CF)n1 [Example 202]	14
Cc1cc(-c2nc(-c3ccc(OC(F)(F)F)c(C#N)c3)n3c2CCO[C@H](C)C3)cc(CF)n1 [Example 203]	4.9
Cc1cc(-c2nc(-c3ccc(C(F)F)c(Cl)c3)n3c2CCO[C@H](CF)C3)cc(C)n1 [Example 197]	15.1
COc1cc(-c2nc(-c3cc(C)nc(CF)c3)c3n2C[C@@H](CF)OCC3)ccc1OC(F)F [Example 209]	5.1
Cc1cc(-c2nc(-c3ccc(Cl)c(C(F)(F)F)c3)n3c2CCO[C@H](C)C3)ccn1 [Example 152]	14.5
COc1cc(-c2nc(-c3cc(C)nc(C)c3)c3n2C[C@@H](C)OCC3)ccc1OC(F)F [Example 148]	9.6
Cc1cc(-c2nc(-c3ccc(OC(F)F)c(F)c3)n3c2CCO[C@H](C)C3)ccn1 [Example 182]	19.3
Cc1cc(-c2nc(-c3ccc(F)c(Cl)c3)n3c2CCO[C@H](CF)C3)cc(C)n1 [Example 171]	26.7
Cc1cc(-c2nc(-c3ccc(F)c(OC(F)(F)F)c3)n3c2CCO[C@H](C)C3)ccn1 [Example 158]	44.6
COc1ccc(-c2nc(-c3cc(C)nc(C(F)F)c3)c3n2C[C@@H](C)OCC3)cc1C [Example 178]	17.8
Cc1cc(-c2nc(-c3ccc(F)c(Cl)c3)n3c2CCO[C@H](C)C3)ccn1 [Example 145]	45.5
Cc1cc(-c2nc(-c3ccc(C)c(OCC4CCOCC4)c3)n3c2CCO[C@H](C)C3)cc(C)n1 [Example 228]	82
Cc1cc(-c2nc(-c3ccc(F)c(C(F)(F)F)c3)n3c2CCO[C@H](C)C3)ccn1 [Example 151]	26.4
COc1cc(-c2nc(-c3cc(C)nc(C(F)F)c3)c3n2C[C@@H](CF)OCC3)ccc1OC(F)F [Example 193]	9
CCOc1cc(-c2nc(-c3cc(C)nc(C)c3)c3n2C[C@@H](C)OCC3)ccc1CC [Example 220]	5.9
